Data taken from the NIST ThermoML archive (doi:10.1016/j.fluid.2009.10.015).
± gives the expanded uncertainty stated by the source.

How the values were obtained:
[1] = Crystal; DTA
[2] = Molar enthalpy of transition or fusion; details: Crystal; DSC

Normal melting temperature [1]: 312.00 ± 4 °C
Molar enthalpy of transition or fusion [2]: 3.47 ± 0.112 kcal/mol
SMILES: CC(=O)c1ccc(C)c2ccccc12 [1-(4-methyl-1-naphthyl) ethanone]
